The source of these data is patent US11149022B2, “Antagonists of the muscarinic acetylcholine receptor M4” (Vanderbilt University, priority 2017, dated 2021).

Each structure is given as a SMILES string.

What is called IC50 is the point on the concentration scale where inhibition reaches its midpoint.

The target of test [1] is T1, Human M4 (Homo sapiens, UniProt P08173).
T1 construct: expressed in transfected cells; host or cells: CHO-K1 (ATCC), stably co-expressing chimeric G protein Gqi5
T1 sequence (P08173 1-479): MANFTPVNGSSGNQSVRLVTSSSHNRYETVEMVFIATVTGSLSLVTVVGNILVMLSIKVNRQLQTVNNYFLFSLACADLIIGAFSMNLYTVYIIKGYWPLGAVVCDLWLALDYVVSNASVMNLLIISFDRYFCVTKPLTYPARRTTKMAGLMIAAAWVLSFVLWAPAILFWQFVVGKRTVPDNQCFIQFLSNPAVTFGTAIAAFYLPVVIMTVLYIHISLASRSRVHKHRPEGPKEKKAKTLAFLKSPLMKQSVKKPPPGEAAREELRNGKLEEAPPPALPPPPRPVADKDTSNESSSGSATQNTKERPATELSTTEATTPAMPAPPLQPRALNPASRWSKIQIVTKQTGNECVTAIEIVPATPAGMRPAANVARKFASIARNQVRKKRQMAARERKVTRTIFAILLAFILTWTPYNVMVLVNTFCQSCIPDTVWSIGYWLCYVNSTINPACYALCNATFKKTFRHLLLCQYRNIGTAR
Kind of test: mAChR M4 cell-based functional assay (calcium flux, antagonist mode). Conditions: for remaining activity at 30 µM: % ACh maximum at 30 μM, read-out: Emin; for IC50: M4/Gqi5/CHO-K1 cells, concentration-dependent decrease of the EC80 acetylcholine response. For orientation: A change in cytosolic calcium serves as a functional read-out for many receptors and channels.

Test [2] deals with haloperidol-induced catalepsy. Description: haloperidol-induced catalepsy, a model of parkinsonian motor disability. The test is classed as in vivo, mice. The source says: Furthermore, haloperidol-induced catalepsy, a model of parkinsonian motor disability, is reduced in M4 knockout mice as compared to wild-type controls. […] The reversal by scopolamine was uncommonly robust and more pronounced than we observe with agents targeting a number of other targets being evaluated for potential antiparkinsonian effects, including metabotropic glutamate (mGlu) receptors mGlu4 or mGlu5, A2A adenosine receptors, and NMDA receptors. […] Taken together with the extensive studies of M4 modulation of basal ganglia and motor function, these studies provide compelling evidence that M4 is the dominant mAChR subtype involved in the antiparkinsonian effects of non-selective mAChR antagonists and provide support for discovery and development of selective M4 antagonists for treatment of neurodegenerative disease such as PD, dystonia, tardive dyskinesia and other movement disorders.

The subject of test [3] is locomotor activity. The conditions noted are these: M4 knockout mice, but not the other four mAChR subtypes (M1-3,5); cited from earlier work.

In the case of `Cc1nn(C)cc1-c1ccc(NCC2CC3(CCN(Cc4ccccc4F)CC3)C2)nn1` [Compound 54, 6-(1,3-dimethylpyrazol-4-yl)-N-[[7-[(2-fluorophenyl)methyl]-7-azaspiro[3.5]nonan-2-yl]methyl]pyridazin-3-amine], in test [1], the remaining activity at 30 µM amounted to 6.27% and the IC50 was 1120 nM.
As for `Cc1nn(C)cc1-c1ccc(NCC2CC3(CCN(Cc4ccccn4)CC3)C2)nn1` [Compound 55, 6-(1,3-dimethylpyrazol-4-yl)-N-[[7-(2-pyridylmethyl)-7-azaspiro[3.5]nonan-2-yl]methyl]pyridazin-3-amine], in test [1], the remaining activity at 30 µM was determined as 34.3% and the IC50 was greater than 10000 nM.
On to `Cc1cccnc1CN1CCC2(CC1)CC(CNc1ccc(-c3cn(C)nc3C)nn1)C2` [Compound 56, 6-(1,3-dimethylpyrazol-4-yl)-N-[[7-[(3-methyl-2-pyridyl)methyl]-7-azaspiro[3.5]nonan-2-yl]methyl]pyridazin-3-amine], for which, in test [1], the remaining activity at 30 µM was 19.4% and the IC50 was determined as 3940 nM.
Take `Cc1nn(C)cc1-c1ccc(NCC2CC3(CCN(CC45CC6CC(CC(C6)C4)C5)CC3)C2)nn1` [Compound 57, N-[[7-(1-adamantylmethyl)-7-azaspiro[3.5]nonan-2-yl]methyl]-6-(1,3-dimethylpyrazol-4-yl)pyridazin-3-amine]: in test [1], the remaining activity at 30 µM worked out at 3.64% and the IC50 is 300 nM.
For `Cc1nn(C)cc1-c1ccc(NCC2CC3(CCN(Cc4ccc(F)cc4)CC3)C2)nn1` [Compound 58, 6-(1,3-dimethylpyrazol-4-yl)-N-[[7-[(4-fluorophenyl)methyl]-7-azaspiro[3.5]nonan-2-yl]methyl]pyridazin-3-amine] the same measures were 11.8% and 5100 nM.
For the compound `Cc1nn(C)cc1-c1ccc(NCC2CC3(CCN(CC4CC5C=CC4C5)CC3)C2)nn1` (centres unmarked) [Compound 59, N-[[7-(5-bicyclo[2.2.1]hept-2-enylmethyl)-7-azaspiro[3.5]nonan-2-yl]methyl]-6-(1,3-dimethylpyrazol-4-yl)pyridazin-3-amine], in test [1], the remaining activity at 30 µM was 5.41% and the IC50 is 180 nM.
Consider `CC(C)(C)CCN1CCC2(CC1)CC(COc1ccc(-c3cc(F)ccc3Cl)nn1)C2` [Compound 60, 2-[[6-(2-Chloro-5-fluoro-phenyl)pyridazin-3-yl]oxymethyl]-7-(3,3-dimethylbutyl)-7-azaspiro[3.5]nonane], for which, in test [1], the remaining activity at 30 µM worked out at 3.47% and the IC50 was found to be 300 nM.
For the compound `Fc1ccc(Cl)c(-c2ccc(OCC3CC4(CCN(CC5CC6C=CC5C6)CC4)C3)nn2)c1` (centres unmarked) [Compound 61, 7-(5-bicyclo[2.2.1]hept-2-enylmethyl)-2-[[6-(2-chloro-5-fluoro-phenyl)pyridazin-3-yl]oxymethyl]-7-azaspiro[3.5]nonane], in test [1], the remaining activity at 30 µM was 3.96% and the IC50 is 250 nM.
For `Fc1ccc(Cl)c(-c2ccc(OCC3CC4(CCN(CC5CCCCC5)CC4)C3)nn2)c1` [Compound 62, 2-[[6-(2-chloro-5-fluoro-phenyl)pyridazin-3-yl]oxymethyl]-7-(cyclohexylmethyl)-7-azaspiro[3.5]nonane] the same measures were 6.14% and 1490 nM.
`Fc1ccc(Cl)c(-c2ccc(OCC3CC4(CCN(CC5CCCOC5)CC4)C3)nn2)c1` (centres unmarked) [Compound 63, 2-[[6-(2-chloro-5-fluoro-phenyl)pyridazin-3-yl]oxymethyl]-7-(tetrahydropyran-3-ylmethyl)-7-azaspiro[3.5]nonane]: in test [1], the remaining activity at 30 µM was 7.8% and the IC50 was 2130 nM.
For `Fc1ccc(Cl)c(-c2ccc(OCC3CC4(CCN(CC5CCOCC5)CC4)C3)nn2)c1` [Compound 64, 2-[[6-(2-chloro-5-fluoro-phenyl)pyridazin-3-yl]oxymethyl]-7-(tetrahydropyran-4-ylmethyl)-7-azaspiro[3.5]nonane] the same measures were 6.61% and 1310 nM.
In the same order, the values of `Fc1ccc(Cl)c(-c2ccc(OCC3CC4(CCN(Cc5ccccc5)CC4)C3)nn2)c1` [Compound 65, 7-benzyl-2-[[6-(2-chIoro-5-fluoro-phenyl)pyridazin-3-yl]oxymethyl]-7-azaspiro[3.5]nonane] are 6.28% and 2660 nM.
For `Fc1ccc(Cl)c(-c2ccc(OCC3CC4(CCN(Cc5ccccn5)CC4)C3)nn2)c1` [Compound 66, 2-[[6-(2-chloro-5-fluoro-phenyl)pyridazin-3-yl]oxymethyl]-7-(2-pyridylmethyl)-7-azaspiro[3.5]nonane], in test [1], the remaining activity at 30 µM was found to be 8.3% and the IC50 was determined as 2740 nM.
Consider `CN1[C@@H]2C[C@@H](OC(=O)[C@H](CO)c3ccccc3)C[C@H]1[C@@H]1O[C@@H]12` [scopolamine], for which the “reduction of catalepsy induced by haloperidol” value in test [2] (M4 KO mice) was “ineffective”. In addition, in test [2] (WT mice), the “reversal of catalepsy induced by haloperidol” value is reported as “completely reversed”. For the same compound, in test [3], the locomotor-activating effects result is listed as “dramatically reduced”.
